Counter-ions that a name gives are not always drawn. Like-named read-outs stand apart in the source and are kept apart here.
How the values were obtained:
[1] = Subacute toxicity in mice; conditions: mouse, in vivo
mice [2] = assay: Subacute toxicity in mice; conditions: once a day, seventeenth day of treatment
G-2 cells = conditions: maximal non-toxic concentration; G-2 cells; hydrochloride
in vitro = conditions: human, g-2 cells; for MNTC: Cytotoxicity CTD0, maximal non-toxic concentration; for CC50: Cytotoxicity CTD50
Influenza A2 /MTL/68 = assay: In vitro anti-myxovirus assay, inhibition of hemadsorption, Influenza A2/MTL/68 in G-2 cells; type: cell-based, Influenza A2 /Montreal/68; conditions: for inhibition at 5 µg/mL: 5 ug/ml; for inhibition at 10 µg/mL: 10 ug/ml; for inhibition at 25 µg/mL: 25 ug/ml; for inhibition at 33 µg/mL: 33 ug/ml; for inhibition at 50 µg/mL: 50 ug/ml
[3] = system: influenza virus A2 /Aichi/2/68; type: in vivo, mice (Charles River, random bred white, female); conditions: for Mean Survival Time / Survival % / Survival N (surviving animals / total infected) / Mean Survival Time Increase: 16 days; for Mean Survival Time Increase: vs virus only; for antiviral effect against influenza virus infection: administered intraperitoneally
Acute toxicity in mice = conditions: mouse, in vivo
mice [4] = assay: Acute toxicity in mice; conditions: after 24 hours
[5] = system: Influenza A/Swine/1976/31; assay: microbe, parasite or virus in culture; type: cell-based; conditions: in Sus scrofa
Influenza A2 /Aichi/2/68 = assay: In vitro anti-myxovirus assay, inhibition of hemadsorption, Influenza A2/Aichi/2/68 in G-2 cells; type: cell-based; conditions: for inhibition at 50 µg/mL: 50 ug/ml; for inhibition at 60 µg/mL: 60 ug/ml; for inhibition at 70 µg/mL: 70 ug/ml; for inhibition at 80 µg/mL: 80 ug/ml; for inhibition at 90 µg/mL: 90 ug/ml; for inhibition at 100 µg/mL: 100 ug/ml
[6] = Exp. 1, virus dose 4.1 LD50, 25 mg/kg/day IP
[7] = Exp. 1, virus dose 4.1 LD50, 75 mg/kg/day IP
[8] = Exp. 2, virus dose 2.0 LD50, 75 mg/kg/day IP
[9] = Exp. 3, virus dose 2.6 LD50, 75 mg/kg/day IP
[10] = Exp. 4, virus dose 3.0 LD50, 75 mg/kg/day IP

With `CN(C)C[C@@H]1C[C@H]2C[C@@H]1c1ccccc12` (relative stereo) [Compound A, endo-2-dimethylaminomethyl-1,2,3,4-tetrahydro-1,4-methanonaphthalene hydrochloride] the LD50 at 408 h ([1]; ip) was 125 mg/kg, the NOAEL at 408 h ([1]; ip) was 25 mg/kg/day and the LD50 at 408 h ([1]; po) was greater than 750 mg/kg. For the same molecule, the NOAEL at 408 h ([1]; po) was 300 mg/kg/day, the “Subacute LD0 (non-lethal dose)” value (mice [2]; IP) was 75 mg/kg/day and the “Subacute LD0 (non-lethal dose)” value (mice [2]; PO) was greater than 750 mg/kg/day. For the same molecule, the “Cytotoxicity CTD0” value (G-2 cells) was 50 µg/mL, the MNTC (in vitro) was 75 µg/mL and the CC50 (in vitro) was 100 µg/mL. For the same molecule, the inhibition at 5 µg/mL (Influenza A2 /MTL/68; 32 TCID50) was 0%, the inhibition at 10 µg/mL (Influenza A2 /MTL/68; 32 TCID50) was 23% and the inhibition at 25 µg/mL (Influenza A2 /MTL/68; 32 TCID50) was 76%. The inhibition at 33 µg/mL (Influenza A2 /MTL/68; 32 TCID50) was 78%, the inhibition at 50 µg/mL (Influenza A2 /MTL/68; 32 TCID50) was 97% and the inhibition at 5 µg/mL (Influenza A2 /MTL/68; 316 TCID50) was 0%. It also gave an inhibition at 10 µg/mL (Influenza A2 /MTL/68; 316 TCID50) of 0%, an inhibition at 25 µg/mL (Influenza A2 /MTL/68; 316 TCID50) of 27% and an inhibition at 33 µg/mL (Influenza A2 /MTL/68; 316 TCID50) of 52%. The inhibition at 50 µg/mL (Influenza A2 /MTL/68; 316 TCID50) was 53%, the “Mean Survival Time” value [3, 6] was 12.7 days and the Survival % [3, 6] was 30%. The “Survival N (surviving animals / total infected)” value [3, 6] was 6/20, the “Mean Survival Time Increase” value [3, 6] was “+0.5 Days” and the “antiviral effect against influenza virus infection” value [3] was “significant antiviral effect”. It also gave an LD50 at 24 h (Acute toxicity in mice; ip) of 160 mg/kg, an NOAEL at 24 h (Acute toxicity in mice; ip) of 25 mg/kg/day and an LD50 at 24 h (Acute toxicity in mice; po) greater than 750 mg/kg. For the same molecule, the NOAEL at 24 h (Acute toxicity in mice; po) was 200 mg/kg/day, the “Acute LD0 (non-lethal dose)” value (mice [4]; IP) was 75 mg/kg/day and the “Acute LD0 (non-lethal dose)” value (mice [4]; PO) was greater than 750 mg/kg/day. For the same molecule, the inhibition at 5 µg/mL ([5]; 56 TCID50, 5 ug/ml) was 0%, the inhibition at 10 µg/mL ([5]; 56 TCID50, 10 ug/ml) was 37% and the inhibition at 25 µg/mL ([5]; 56 TCID50, 25 ug/ml) was 85%. The inhibition at 33 µg/mL ([5]; 56 TCID50, 33 ug/ml) was 82%, the inhibition at 50 µg/mL ([5]; 56 TCID50, 50 ug/ml) was 97% and the inhibition at 75 µg/mL ([5]; 56 TCID50, 75 ug/ml) was 100%. For the same molecule, the inhibition at 5 µg/mL ([5]; 562 TCID50, 5 ug/ml) was 0%, the inhibition at 10 µg/mL ([5]; 562 TCID50, 10 ug/ml) was 0% and the inhibition at 25 µg/mL ([5]; 562 TCID50, 25 ug/ml) was 0%. For the same molecule, the inhibition at 33 µg/mL ([5]; 562 TCID50, 33 ug/ml) was 37%, the inhibition at 50 µg/mL ([5]; 562 TCID50, 50 ug/ml) was 72% and the inhibition at 75 µg/mL ([5]; 562 TCID50, 75 ug/ml) was 73%.
`NC12CC3CC(CC(C3)C1)C2` [AMANTADINE HYDROCHLORIDE, reference compound] showed an inhibition at 50 µg/mL (Influenza A2 /Aichi/2/68; 52 TCID50) of 0%, an inhibition at 60 µg/mL (Influenza A2 /Aichi/2/68; 52 TCID50) of 53% and an inhibition at 70 µg/mL (Influenza A2 /Aichi/2/68; 52 TCID50) of 83%. The inhibition at 80 µg/mL (Influenza A2 /Aichi/2/68; 52 TCID50) was 70%, the inhibition at 90 µg/mL (Influenza A2 /Aichi/2/68; 52 TCID50) was 97% and the inhibition at 100 µg/mL (Influenza A2 /Aichi/2/68; 52 TCID50) was 87%. For the same molecule, the inhibition at 50 µg/mL (Influenza A2 /Aichi/2/68; 100 TCID50) was 0%, the inhibition at 60 µg/mL (Influenza A2 /Aichi/2/68; 100 TCID50) was 0% and the inhibition at 70 µg/mL (Influenza A2 /Aichi/2/68; 100 TCID50) was 33%. It also gave an inhibition at 80 µg/mL (Influenza A2 /Aichi/2/68; 100 TCID50) of 27%, an inhibition at 90 µg/mL (Influenza A2 /Aichi/2/68; 100 TCID50) of 67% and an inhibition at 100 µg/mL (Influenza A2 /Aichi/2/68; 100 TCID50) of 43%. The MNTC (in vitro) was 100 µg/mL, the CC50 (in vitro) was greater than 100 µg/mL and the inhibition at 50 µg/mL (Influenza A2 /MTL/68; 316 TCID50) was 0%. The inhibition at 60 µg/mL (Influenza A2 /MTL/68; 316 TCID50, 60 ug/ml) was 0%, the inhibition at 70 µg/mL (Influenza A2 /MTL/68; 316 TCID50, 70 ug/ml) was 16% and the inhibition at 80 µg/mL (Influenza A2 /MTL/68; 316 TCID50, 80 ug/ml) was 42%. The inhibition at 90 µg/mL (Influenza A2 /MTL/68; 316 TCID50, 90 ug/ml) was 46%, the inhibition at 100 µg/mL (Influenza A2 /MTL/68; 316 TCID50, 100 ug/ml) was 54% and the “Mean Survival Time” value [3, 7] was 14.1 days. The Survival % [3, 7] was 55%, the “Survival N (surviving animals / total infected)” value [3, 7] was 11/20 and the “Mean Survival Time Increase” value [3, 7] was “+1.9 Days”. The “Mean Survival Time” value [3, 8] was 15.3 days, the Survival % [3, 8] was 80% and the “Survival N (surviving animals / total infected)” value [3, 8] was 16/20. For the same molecule, the “Mean Survival Time Increase” value [3, 8] was “+2.9 Days”, the “Mean Survival Time” value [3, 9] was 15.1 days and the Survival % [3, 9] was 80%. The “Survival N (surviving animals / total infected)” value [3, 9] was 16/20, the “Mean Survival Time Increase” value [3, 9] was “+4.0 Days” and the “Mean Survival Time” value [3, 10] was 15.0 days. For the same molecule, the Survival % [3, 10] was 79%, the “Survival N (surviving animals / total infected)” value [3, 10] was 15/19 and the “Mean Survival Time Increase” value [3, 10] was “+3.7 Days”. For the same molecule, the “antiviral effect against influenza virus infection” value [3] was “significant antiviral effect”, the inhibition at 30 µg/mL ([5]; 178 TCID50, 30 ug/ml) was 0% and the inhibition at 40 µg/mL ([5]; 178 TCID50, 40 ug/ml) was 17%. The inhibition at 50 µg/mL ([5]; 178 TCID50, 50 ug/ml) was 80%, the inhibition at 60 µg/mL ([5]; 178 TCID50, 60 ug/ml) was 90% and the inhibition at 70 µg/mL ([5]; 178 TCID50, 70 ug/ml) was 93%. For the same molecule, the inhibition at 80 µg/mL ([5]; 178 TCID50, 80 ug/ml) was 100%, the inhibition at 90 µg/mL ([5]; 178 TCID50, 90 ug/ml) was 100% and the inhibition at 100 µg/mL ([5]; 178 TCID50, 100 ug/ml) was 100%. The inhibition at 30 µg/mL ([5]; 316 TCID50, 30 ug/ml) was 0%, the inhibition at 40 µg/mL ([5]; 316 TCID50, 40 ug/ml) was 10% and the inhibition at 50 µg/mL ([5]; 316 TCID50, 50 ug/ml) was 67%. For the same molecule, the inhibition at 70 µg/mL ([5]; 316 TCID50, 70 ug/ml) was 97%, the inhibition at 80 µg/mL ([5]; 316 TCID50, 80 ug/ml) was 100% and the inhibition at 90 µg/mL ([5]; 316 TCID50, 90 ug/ml) was 100%. It also gave an inhibition at 100 µg/mL ([5]; 316 TCID50, 100 ug/ml) of 100%.

Source: patent US4362746A (priority 1981, dated 1982)
